Measurements reported in US20070238725A1, “Therapeutic combinations for the treatment or prevention of psychotic disorders” (Wyeth, priority 2006, published 2007).
Read-outs that look alike come from different tables or passages of the source.

Assays:
[1] = system: apomorphine-induced climbing; test: Apomorphine-induced climbing in mice; type: in vivo; conditions: for block of apomorphine-induced climbing: versus either compound alone; for ED50: Mus musculus, read-out: ED50 for apomorphine block; for dose for increased efficacy with co-administration: co-administration with haloperidol
Method: (Compound 2, “cpd 2”) to exemplify, the present Example describes four experiments in which a compound of formula I, was administered in combination with either a typical (exemplified by haloperidol) or atypical (exemplified by clozapine). The combination reduced apomorphine-induced climbing without side effects.
(§1) Mice were acclimated to the climbing cages for at least 1 hour and then dosed with either the vehicle or a dose of haloperidol or clozapine followed by a dose of either vehicle or a dose of Compound 1. Thirty minutes after dosing all mice received 1 mg/kg, s.c. apomorphine and returned to the climbing cages. Five minutes after apomorphine the mice were observed and scored for climbing and stereotypy every 5 minutes for the 30 minute test session.

[2] = system: haloperidol induced catalepsy; test: Catalepsy (bar test), extra-pyramidal side effect liability; type: in vivo, mice; conditions: for dose for increased EPS liability with co-administration: co-administration with haloperidol, mice
Method: (Compound 2, “cpd 2”) to exemplify, the present Example describes an experiment in which a compound of formula I was administered in combination with haloperidol to assess extra-pyramidal side effect liability, as represented by cataleptic behavior. [table] [table] [table] Mice were dosed with either the vehicle or a dose of haloperidol followed by a dose of either vehicle or a dose of Compound 1 or Compound 2. Thirty, 60, 90 and 120 minutes after dosing, the forelegs are draped over a thin horizontal rod 1.75″ high. The number of seconds up to 60 sec for which the mouse remains on the bar is recorded at each test point and presented as the percent of maximum possible response (60 sec).

[3] = system: conditioned avoidance responding; test: Conditioned avoidance responding; type: in vivo; conditions: rats
Method: (Compound 2, “cpd 2”) to exemplify, the present Example describes an experiment to determine the effect of co-administration of haloperidol (0.54 mg/kg, i.p. 30′ pretreatment) or clozapine (5.4 mg/kg, i.p., 30′ pretreatment) and compound 1 (0.54 mg/kg, i.p., 30′ pretreatment) or compound 2 (1 mg/kg, i.p. 30′ pretreatment) on conditioned avoidance responding.
Male rats had been trained to a stable criterion performance of 90% avoidance responding and had been used in previous drug studies. The dosing plan was a within subject pseudo random design so that all rats received all treatments over several weeks. On test days in experiments 1 and 2 the rats were dosed with vehicle, Compound 1, haloperidol or clozapine or a combination of Compound 1/haloperidol or Compound 1/clozapine. On test days in experiments 3 and 4 the rats were dosed with vehicle, Compound 2, haloperidol or clozapine or a combination of Compound 2/haloperidol or Compound 2/clozapine. Conditioned avoidance testing commenced 30 minutes after treatment and the rats received 50 trials and the number of avoidance, escape and no response trials was recorded.

[4] = system: stereotypy; test: Apomorphine-induced stereotypy scored in the climbing test; type: in vivo, mice
Method: as §1

[5] = sc, 0.5 h, compound alone, mice, apomorphine 1 mg/kg s.c. 30 min after dosing
[6] = administered individually, 0.54 mg/kg i.p., 30 min pretreatment

**Q.** With `c1cc2c3c(c1)[C@H]1CCC[C@H]1N3CCNC2` [Compound 1] as the molecule, how does the “block of apomorphine-induced climbing” value ([1]; Compound 1 5.4 & 17 mg/kg co-administered with clozapine 3 & 5.4 mg/kg) read?
**A.** The value was “greater block”.

**Q.** And the “block of apomorphine-induced climbing” value ([1]; Compound 1 5.4 & 17 mg/kg co-administered with haloperidol 0.17 & 0.3 mg/kg)?
**A.** Its value is “greater block”.

**Q.** What about the ED50 [1, 5] of the same molecule?
**A.** Its ED50 is 17 mg/kg.

**Q.** And the “dose for increased efficacy with co-administration” value ([1]; mice)?
**A.** The value was 5.4 mg/kg.

**Q.** And the “ED50 for apomorphine block” value ([1]; compound alone, mice, apomorphine 1 mg/kg s.c. 30 min after dosing)?
**A.** Its value is 15.89 mg/kg.

**Q.** And the “catalepsy, percent of maximum catalepsy (60 sec on bar)” value ([2]; Compound 1 17 mg/kg with 0.17 and 0.3 mg/kg haloperidol, moderate increase, 30-120 min after dosing)?
**A.** The value was “up to 30%”.

**Q.** And the “dose for increased EPS liability with co-administration” value [2]?
**A.** Its value is at least 17 mg/kg.

**Q.** What about the “potentiation of haloperidol-induced catalepsy” value ([2]; lower doses of Compound 1 (1.7, 5.4 mg/kg) with 0.17 and 0.3 mg/kg haloperidol) of the same molecule?
**A.** Its value is “failed to potentiate catalepsy”.

**Q.** What about the “decrease in avoidance responding” value ([3]; Compound 1 0.54 mg/kg co-administered with clozapine 5.4 mg/kg, i.p.) of the same molecule?
**A.** Its value is over 70%.

**Q.** What about the “effect on number of no response trials” value ([3]; Compound 1 0.54 mg/kg co-administered with clozapine 5.4 mg/kg) of the same molecule?
**A.** Its value is “no adverse effects”.

**Q.** What about the “decrease in avoidance responding” value ([3]; Compound 1 0.54 mg/kg co-administered with haloperidol 0.54 mg/kg, i.p.) of the same molecule?
**A.** The value was over 70%.

**Q.** And the “effect on number of no response trials” value ([3]; Compound 1 0.54 mg/kg co-administered with haloperidol 0.54 mg/kg)?
**A.** Its value is “no adverse effects”.

**Q.** What about the “decrease in avoidance responding” value [3, 6] of the same molecule?
**A.** The value was about 10%.

**Q.** What about the “stereotypy relative to 0.3 haloperidol alone” value ([4]; 0.3 mg/kg haloperidol with all doses of Compound 1 (1.7, 5.4, 17 mg/kg)) of the same molecule?
**A.** The value was “decreased stereotypy”.

**Q.** What about the decrease in stereotypy ([4]; 17 mg/kg Compound 1 and 0.17 mg/kg haloperidol combined treatment group) of the same molecule?
**A.** Its decrease in stereotypy is under 10%.

**Q.** What about the decrease in stereotypy ([4]; 17 mg/kg Compound 1 and 5.4 mg/kg clozapine combined treatment) of the same molecule?
**A.** The decrease in stereotypy was about 13%.

**Q.** Which “block of apomorphine-induced climbing” value ([1]; Compound 2 3, 10 & 30 mg/kg co-administered with clozapine 3 & 5.4 mg/kg) does the source give for `c1cc2c3c(c1)[C@H]1CCC[C@H]1CN3CCNC2` [Compound 2] here?
**A.** Its value is “greater block”.

**Q.** What about the “block of apomorphine-induced climbing” value ([1]; Compound 2 3, 10 & 30 mg/kg co-administered with haloperidol 0.1 & 0.17 mg/kg) of the same molecule?
**A.** The value was “greater block”.

**Q.** And the ED50 ([1]; co-administered with 0.1 mg/kg of haloperidol, mice)?
**A.** The ED50 was 2.4 mg/kg.

**Q.** And the ED50 ([1]; co-administered with 0.17 mg/kg of haloperidol, mice)?
**A.** Its ED50 is 4.1 mg/kg.

**Q.** And the ED50 ([1]; compound alone, Experiment 4, mice)?
**A.** Its ED50 is 27.1 mg/kg.

**Q.** What about the ED50 [1, 5] of the same molecule?
**A.** Its ED50 is 27.1 mg/kg.

**Q.** What about the “dose for increased efficacy with co-administration” value ([1]; mice) of the same molecule?
**A.** Its value is 3 mg/kg.

**Q.** What about the “potentiation of haloperidol-induced catalepsy” value ([2]; Compound 2 10 mg/kg with haloperidol 0.1 and 0.17 mg/kg) of the same molecule?
**A.** The value was “failed to potentiate”.

**Q.** And the “dose for increased EPS liability with co-administration” value [2]?
**A.** Its value is over 10 mg/kg.

**Q.** And the “decrease in avoidance responding” value ([3]; Compound 2 1 mg/kg co-administered with clozapine 5.4 mg/kg, i.p.)?
**A.** The value was over 60%.

**Q.** And the “effect on number of no response trials” value ([3]; Compound 2 1 mg/kg co-administered with clozapine 5.4 mg/kg)?
**A.** The value was “no adverse effects”.

**Q.** And the “decrease in avoidance responding” value ([3]; Compound 2 1 mg/kg co-administered with haloperidol 0.54 mg/kg, i.p.)?
**A.** The value was over 50%.

**Q.** What about the “effect on number of no response trials” value ([3]; Compound 2 1 mg/kg co-administered with haloperidol 0.54 mg/kg) of the same molecule?
**A.** The value was “no adverse effects”.

**Q.** And the decrease in stereotypy ([4]; 30 mg/kg Compound 2 and 0.17 mg/kg haloperidol combined treatment relative to haloperidol alone)?
**A.** The decrease in stereotypy was about 30%.

**Q.** What about the decrease in stereotypy ([4]; 30 mg/kg Compound 2 and 5.4 mg/kg clozapine combined treatment) of the same molecule?
**A.** Its decrease in stereotypy is about 20%.

**Q.** Which “decrease in avoidance responding” value ([3]; administered individually, 5.4 mg/kg i.p., 30 min pretreatment) does the source give for `CN1CCN(C2=Nc3cc(Cl)ccc3Nc3ccccc32)CC1` [clozapine, 8-chloro-11-(4-methyl-1-piperazinyl)-5H-dibenzo[b,e]-[1,4]-diazepine, reference compound] here?
**A.** Its value is about 10%.

**Q.** Which “decrease in avoidance responding” value [3, 6] does the source give for `O=C(CCCN1CCC(O)(c2ccc(Cl)cc2)CC1)c1ccc(F)cc1` [haloperidol, 4-[4-(4-chlorophenyl)-4-hydroxy-1-piperidinyl]-1-(4-fluoro-phenyl)-1-butanone, reference compound] here?
**A.** The value was about 10%.
